According to patent publication US20250127743A1, “USE OF BRANCHED CHAIN FATTY ACIDS (BCFAS) FOR THE TREATMENT OF INTESTINAL INFLAMMATION” (priority 2021, published 2025):
Like-named read-outs stand apart in the source and are kept apart here.

Key:
[1] = system: proteins conjugated to SUMO2/3 in CACO2 cells; test: Immunoblot quantification of SUMO2/3-conjugated proteins (above 50 kDa) in CACO2 cells; type: cell-based; settings: for effect of ROS scavenger preincubation on BCFAs-induced hyperSUMOylation: 30 min pre-incubation with 5 mM NAC or 10 μM DPI, then 1h 5 mM isobutyric or isovaleric acid
Procedure: (§1) CACO2 and HeLa cells were cultivated in Minimum Essential Medium (MEM) (Eurobio) supplemented with 2 mM L-Glutamine (Invitrogen), 10% Fetal Bovine Serum (FBS, Eurobio), non-essential aminoacids (Sigma), 1 mM sodium pyruvate (Gibco) and a mixture of penicillin (10000 U/mL) and streptomycin (10 mg/mL). […] CACO2 and T84 cells were seeded in wells at a density of 1.1×10^5 cells/cm^2 and 1.7×10^5 cells/cm^2, respectively, the day before incubation with BCFAs or SCFAs.
(§2) Before treatments, cell culture medium was replaced by HBSS (Hanks' Balanced Salt Solution; Sigma). Cells were then treated as indicated in the text and directly lysed with Laemmli buffer. For BCFAs and SCFAs treatments, 100 mM stock solutions in water were first prepared from the corresponding acidic form (e.g. isobutyric acid) or from the sodium salt of the corresponding basic form (e.g. sodium isobutyrate) and then further diluted in cell culture media (HBSS). When needed, the pH of cell culture medium was set using either 0.1 M NaOH or 0.1 M HCl solution. […] For TNFα treatments, CACO2 cells were first incubated with BCFAs or SCFAs for 1 hour and then incubated with 100 ng/mL recombinant human TNFα (PeproTech). For immunoblotting and qRT-PCR analyses, cells were lysed after 30 min or 1h of incubation with TNFα, respectively. For Transepithelial electrical resistance (TEER) measurements, cells were incubated for 24 h with TNFα. Viability of cells incubated with HBSS at various pH or with BCFAs was assessed using the CellTiter-Glo® luminescent cell viability assay (Promega), according to the manufacturer's protocol.
(§3) Cell lysates and protein extracts from intestinal tissues in Laemmli buffer were boiled for 5 min, sonicated and protein content was resolved using SDS-polyacrylamide gel electrophoresis. Proteins were then transferred on PVDF membranes (GE Healthcare) and detected after incubation with specific antibodies using ECL Clarity Western blotting Substrate (BioRad). […] Quantifications of proteins were performed on a ChemiDoc Imaging System (Bio-rad). SUMO2/3-conjugated proteins levels (above 50 kDa), SUMO1-conjugated protein levels (above 50 kDa), and other specific protein levels were normalized either by the level of total proteins above 50 kDa (determined using the TGX-stain free imaging technology; Bio-rad) or by the level of actin in each lysate.

[2] = system: CACO2 cells; test: Luminol-based ROS detection assay in CACO2 cells; type: cell-based; settings: for ROS production: 1h of incubation; for level of ROS: 5h of incubation, compared with 1h
Procedure: Luminol was dissolved in NaOH 0.1 M to obtain a 50 mM stock solution. A stock solution of 1000 U/mL HRP (HorseRadish Peroxidase) was prepared in parallel in PBS (Phosphate-Buffered Saline). After treatment with BCFAs or SCFAs or incubation in HBSS at pH 5.2, CACO2 and HeLa culture media were collected and centrifugated for 5 min at 13,000×g at room temperature. The pH of these culture media was then buffered to 7.5 to avoid pH-dependent interferences with luminol activity. Luminol (1 mM final concentration) and HRP (4 U/mL) were finally added to each culture media and luminescence was quantified immediately on a luminometer (Tecan).

[3] = system: cullin-1 neddylation in HeLa cells; settings: HeLa cells (Kumar et al., 2007; Kumar et al., 2009); cited from earlier work
[4] = system: HeLa cells; settings: HeLa cells (Kumar et al., 2009); cited from earlier work
[5] = system: IEC-6 intestinal epithelial cells; settings: IEC-6 intestinal epithelial cells (Kumar et al., 2009); cited from earlier work
[6] = system: IκBα; test: Immunoblot of IκBα levels in TNFα-stimulated CACO2 cells; type: cell-based; settings: 1 hour pre-incubation with 5 mM, then 30 min 100 ng/mL TNFα
Procedure: as §2, §3

[7] = system: IL8; test: qRT-PCR of IL8 mRNA in TNFα-stimulated CACO2 cells; type: cell-based; settings: 1 hour pre-treatment, then 1 hour 100 ng/mL TNFα
Procedure: as §2, with “For Transepithelial electrical resistance (TEER) measurements, cells were incubated for 24 h with TNFα.” left out
(§4) Total RNAs were extracted from CACO2 cells using the RNeasy Plus Mini kit (Qiagen) following manufacturer's instructions. […] Specific cDNAs were then quantified by qPCR using Itaq Universal SYBR Green Supermix (BioRad) on a Mastercycler ep Realplex system (Eppendorf, Hamburg, Germany). […]

[8] = system: deSUMOylases; test: DeSUMOylase activity assay (SUMO-AMC cleavage) in lysates of treated CACO2 and T84 cells; type: cell-based; settings: 5 mM for 5 h, cell lysates
Procedure: For in vitro cell lines, CACO2 and T84 cells grown in 12-well plates were scraped in 100 μL lysis buffer (Tris HCl pH 8.0 50 mM, EDTA 5 mM, NaCl 200 mM, Glycerol 10%, NP40 0.5%). For in vivo tissues, caecal segments were resuspended in lysis buffer (800 μL for 100 mg of tissues), mechanically lysed using bead beating and further diluted 25 times in lysis buffer. Negative controls were prepared by adding 10 mM N-ethymaleimide (NEM; Sigma-Aldrich) to cell lysates. Recombinant human SUMO1-AMC and SUMO2-AMC proteins (R&D Systems) were diluted in parallel to 500 nM in Assay buffer (Tris HCl pH 8.0 50 mM, Bovine Serum Albumin (BSA) 100 μg/mL, Dithiothreitol (DTT) 10 mM). For each measurement, 10 μL of cell or tissue lysates were mixed with 40 μL of SUMO-AMC containing Assay buffer and fluorescence (λEx=380 nm; λEm=460 nm) was recorded for 30 min at 37° C. on a Flexstation 3 microplate reader (Molecular Devices). DeSUMOylase activities were determined by calculating the initial rate of fluorescence emission in each lysate and by normalizing by the quantity of proteins in the corresponding sample, determined in parallel using BCA assays (Pierce™ BCA Protein Assay Kit).

[9] = system: CCL20; test: qRT-PCR of CCL20 mRNA in TNFα-stimulated CACO2 cells; type: cell-based; settings: 1 hour pre-treatment, then 1 hour 100 ng/mL TNFα
Procedure: as §2, with “For Transepithelial electrical resistance (TEER) measurements, cells were incubated for 24 h with TNFα.” left out
as §4

[10] = system: cullin-1 neddylation in HeLa cells; test: Cullin-1 neddylation in HeLa cells; type: cell-based; settings: 5h of incubation
Procedure: as §1, §3

[11] = system: CACO2 cells; test: Transepithelial electrical resistance (TEER) of differentiated CACO2 monolayers with TNFα; type: cell-based; settings: differentiated CACO2 in Transwell, 1 hour pre-treatment, then 24 hours 100 ng/mL TNFα
Procedure: CACO2 cells were seeded in Transwell inserts and cultivated for 21 days. Monolayer formation and differentiation was monitored by daily evaluation of transepithelial electrical resistance (TEER) measurement, performed with an EVOM epithelial voltohm meter equipped with “chopstick” electrodes. After three weeks, cell culture media were replaced by HBSS. Cells were then preincubated or not with isobutyric or isovaleric acids for 1 hour. 100 ng/mL TNFα was then added to both apical and basolateral compartments. TEER was evaluated after 24h of incubation.

[12] = system: proteins conjugated to SUMO2/3 in T84 cells; test: Immunoblot of SUMO2/3-conjugated proteins in T84 cells; type: cell-based; settings: 5 mM, 1h of incubation
Procedure: as §1
Before treatments, cell culture medium was replaced by HBSS (Hanks' Balanced Salt Solution; Sigma). Cells were then treated as indicated in the text and directly lysed with Laemmli buffer. […] Viability of cells incubated with HBSS at various pH or with BCFAs was assessed using the CellTiter-Glo® luminescent cell viability assay (Promega), according to the manufacturer's protocol.
Cell lysates and protein extracts from intestinal tissues in Laemmli buffer were boiled for 5 min, sonicated and protein content was resolved using SDS-polyacrylamide gel electrophoresis. Proteins were then transferred on PVDF membranes (GE Healthcare) and detected after incubation with specific antibodies using ECL Clarity Western blotting Substrate (BioRad). […] Quantifications of proteins were performed on a ChemiDoc Imaging System (Bio-rad). […]

[13] = system: T84 cells; test: Intracellular pH (BCECF-AM) in T84 cells; settings: 5 mM
Procedure: CACO2 and T84 cells, grown in 96-well plates were loaded with 2 μM BCECF-AM (2′,7′-Bis-(2-Carboxyethyl)-5-(and-6)-Carboxyfluorescein, Acetoxymethyl Ester; Invitrogen) for 30 min in HBSS at 37° C. […] Cells were then washed twice and incubated in HBSS with or without BCFAs or with HBSS at definite pH. Cell fluorescence (λEmission535 nm) was recorded at two different excitation wavelengths: 440 nm and 490 nm. Comparison of the ratios of fluorescence intensities (490/440 nm) was performed to detect changes in intracellular pH. Calibration solutions (with pH ranging from 4.5 to 7.5) were used as controls (Intracellular pH Calibration Buffer Kit; Molecular Probes).

[14] = system: CACO2 cells; test: Intracellular pH (BCECF-AM) in CACO2 cells; type: cell-based; settings: 5 mM
[15] = pH and acid/base forms of BCFA in HBSS medium; type: physicochemical; settings: 5 mM added to HBSS medium
Procedure: as §2
BCFAs are weak organic acids, which exist in solution either as acidic (R—COOH) or basic (R—COO^−) forms.

[16] = system: SAE1/SAE2 or UBC9; test: Immunoblot of E1 and E2 SUMO enzyme levels in CACO2 cells; type: cell-based
Procedure: as §3

[17] = CACO2 cells, 5h, pH~5.2, 5 mM final concentration
[18] = CACO2 cells, pH~7.5, 5 mM final concentration

c1ccc2c(c1)[I+]c1ccccc1-2 [DPI, Diphenyleneiodonium]
effect of ROS scavenger preincubation on BCFAs-induced hyperSUMOylation ([1]; CACO2 cells): significantly block

CC(=O)N[C@@H](CS)C(=O)O [NAC, N-acetyl cysteine]
effect of ROS scavenger preincubation on BCFAs-induced hyperSUMOylation ([1]; CACO2 cells): significantly block

CC(=O)O [acetic acid]
level of SUMO2/3-conjugated proteins [1]: significant increase

CCCC(=O)O [butyric acid]
ROS production [2]: induce ROS production | level of ROS [2]: less important | cullin-1 neddylation [3]: trigger the loss of cullin-1 neddylation | ROS production [4]: induce ROS | level of SUMO2/3-conjugated proteins [1, 17]: significant increase | ROS production [5]: induce ROS | TNFα-triggered degradation of IκBα [6]: block

CC(C)C(=O)O [isobutyric acid]
ROS production [2]: induce ROS production | level of ROS [2]: less important | IL8 mRNA expression in response to TNFα [7]: downregulate | initial rate of SUMO deconjugation, SUMO1-AMC substrate [8]: significantly decrease | initial rate of SUMO deconjugation, SUMO2-AMC substrate [8]: significantly decrease | CCL20 mRNA expression in response to TNFα [9]: downregulate | cullin-1 neddylation [10]: triggers cullin-1 deneddylation | TNFα-induced increase in epithelial permeability (TEER) [11]: block | hyperSUMOylation (SUMO2/3-conjugated proteins) [12]: hyperSUMOylation is similarly observed | level of proteins conjugated to SUMO2/3 ([1]; CACO2 cells, 5 mM, 1h or 5h of incubation): significant increase | intracellular pH (pHi) [13]: significant decrease | TNFα-triggered degradation of IκBα [6]: block | intracellular pH (pHi) [14]: significant decrease | concentration present as isobutyrate [15]: ~3500 µM | concentration present as isobutyric acid [15]: ~1500 µM | pH of HBSS medium after addition [15]: ~5.2 | proportion present as isobutyrate [15]: ~72% | proportion present as isobutyric acid [15]: ~28% | level of SAE1/SAE2 or UBC9 [16]: do not alter

CCC(=O)O [propionic acid]
level of SUMO2/3-conjugated proteins [1, 17]: significant increase

CC(=O)[O-].[Na+] [sodium acetate]
SUMOylation pattern [1]: does not trigger any changes

CCCC(=O)[O-].[Na+] [sodium butyrate, reference compound]
ROS detection after incubation with sodium salts (basic forms) [2]: no ROS were detected | SUMOylation pattern [1, 18]: does not trigger any changes | TNFα-triggered degradation of IκBα [6]: not observed

CCC(=O)[O-].[Na+] [sodium propionate]
SUMOylation pattern [1, 18]: does not trigger any changes
